Laboratory results published in ChEMBL document CHEMBL4602617, “Discovery and optimization of heteroaryl piperazines as potent and selective PI3Kδ inhibitors” (Bioorg Med Chem Lett, 2020).

Key:
[1] = molecular target: Voltage-gated inwardly rectifying potassium channel KCNH2 (Homo sapiens, UniProt Q12809); assay: Inhibition of human ERG
[2] = molecular target: RAF proto-oncogene serine/threonine-protein kinase (Homo sapiens, UniProt P04049, Y340D/Y341D); assay: Inhibition of recombinant human GST-tagged RAF1 Y340D Y341D mutant catalytic domain expressed in baculovirus expression system using serine/threonine-3 peptide as substrate incubated for 60 mins in presence of ATP by Z'-LYTE assay
[3] = molecular target: Serine/threonine-protein kinase TBK1 (Homo sapiens, UniProt Q9UHD2); assay: Inhibition of recombinant full length human GST-tagged TBK1 expressed in insect expression system using serine/threonine-5 peptide as substrate incubated for 60 mins in presence of ATP by Z'-LYTE assay
[4] = molecular target: Fibroblast growth factor receptor 3 (Homo sapiens, UniProt P22607, K650E); assay: Inhibition of recombinant N-terminal His-tagged human FGFR3 K650E mutant (398 to 806 residues) cytoplasmic domain expressed in baculovirus expression system using Tyr 04 peptide as substrate after 1 hr in presence of ATP by Z'-LYTE assay
[5] = molecular target: Glucocorticoid receptor (Homo sapiens) (UniProt P04150); assay: Displacement of [3H]dexamethasone from full length human recombinant glucocorticoid receptor expressed in insect cells at 10 uM incubated for 24 hrs by radiometric scintillation analysis relative to control
[6] = molecular target: Calcium/calmodulin-dependent protein kinase type II subunit alpha (Homo sapiens, UniProt Q9UQM7); assay: Inhibition of recombinant full length human His-tagged CAMK2alpha expressed in baculovirus expression system using serine/threonine-4 peptide as substrate incubated for 60 mins in presence of ATP by Z'-LYTE assay
[7] = molecular target: Vasoactive intestinal polypeptide receptor 1 (Homo sapiens) (UniProt P32241); assay: Displacement of [125I]VIP from human HT-29 cells derived VIP1 at 10 uM after 60 mins by radiometric scintillation analysis relative to control; assay type: cell-based
[8] = molecular target: Tyrosine-protein kinase Lyn (Homo sapiens, UniProt P07948); assay: Inhibition of recombinant full length human GST-tagged LYN-A expressed in insect cells using tyrosine-2 peptide as substrate incubated for 60 mins in presence of ATP by Z'-LYTE assay
[9] = molecular target: Macrophage-stimulating protein receptor (Homo sapiens, UniProt Q04912); assay: Inhibition of recombinant human GST-tagged RON catalytic domain (983 to 1400 residues) expressed in baculovirus expression system using tyrosine-6 peptide as substrate incubated for 60 mins in presence of ATP by Z'-LYTE assay
[10] = molecular target: Tyrosine-protein kinase Yes (Homo sapiens, UniProt P07947); assay: Inhibition of full length recombinant GST-tagged human YES1 expressed in baculovirus expression system using tyr 02 peptide as substrate after 1 hr in presence of ATP by Z'-LYTE assay
Caspase-8 (Homo sapiens) = Caspase-8 (Homo sapiens) (UniProt Q14790); assay: Inhibition of recombinant human caspase 8 (217 to end residues) expressed in Escherichia coli at 10 uM using Ac-IETD-AMC as substrate after 60 mins by spectrophotometric analysis relative to control
[11] = Clearance in rat liver microsomes; assay type: ADME, Microsome; conditions: read-out: CLH
[12] = molecular target: Peroxisome proliferator-activated receptor gamma (Homo sapiens) (UniProt P37231); assay: Displacement of [3H]rosiglitazone from […] human recombinant PPARgamma LBD domain expressed in insect cells at 10 uM measured after 24 hrs by radiometric scintillation analysis relative to control
[13] = molecular target: Tyrosine-protein kinase Mer (Homo sapiens, UniProt Q12866); assay: Inhibition of recombinant human GST-tagged MER (578 to 872 residues) expressed in baculovirus expression system using tyrosine-2 peptide as substrate incubated for 60 mins in presence of ATP by Z'-LYTE assay
[14] = molecular target: Mitogen-activated protein kinase 11 (Homo sapiens, UniProt Q15759); assay: Inhibition of recombinant full length human His-tagged p38beta expressed in baculovirus expression system using serine/threonine-15 peptide as substrate incubated for 60 mins in presence of ATP by Z'-LYTE assay
[15] = molecular target: Tyrosine-protein kinase receptor UFO (Homo sapiens, UniProt P30530); assay: Inhibition of recombinant full length human GST-tagged AXL expressed in insect expression system using tyrosine-6 peptide as substrate incubated for 60 mins in presence of ATP by Z'-LYTE assay
[16] = molecular target: Inhibitor of nuclear factor kappa-B kinase subunit epsilon (Homo sapiens, UniProt Q14164); assay: Inhibition of recombinant human full-length GST-tagged IKBKE expressed in baculovirus expression system using Ser/Thr 11 peptide as substrate measured after 1 hr in presence of ATP by Z'-lyte assay
[17] = molecular target: DNA-dependent protein kinase catalytic subunit (Homo sapiens, UniProt P78527); assay: Inhibition of recombinant human DNA-PK expressed in baculovirus expression system using serine/threonine-26 peptide as substrate incubated for 60 mins in presence of ATP by Z'-LYTE assay
[18] = molecular target: 5-hydroxytryptamine receptor 1B (Rattus norvegicus) (UniProt P28564); assay: Displacement of [125I]cyanopindolol from 5HT1B receptor in Wistar rat cerebral cortical membranes at 10 uM measured after 90 mins by radiometric scintillation analysis relative to control
CDK7/Cyclin H/MNAT1 = CDK7/Cyclin H/MNAT1 (Homo sapiens, UniProt P50613); assay: Inhibition of recombinant full length human His-tagged CDK7/CyclinH/MAT1 expressed in baculovirus expression system using CDK7/9tide peptide as substrate incubated for 60 mins in presence of ATP by Adapta assay
[19] = molecular target: cAMP-dependent protein kinase catalytic subunit PRKX (Homo sapiens, UniProt P51817); assay: Inhibition of recombinant full length human GST-tagged PRKX expressed in baculovirus expression system using serine/threonine-1 peptide as substrate incubated for 60 mins in presence of ATP by Z'-LYTE assay
[20] = molecular target: Thyrotropin-releasing hormone receptor (Rattus norvegicus) (UniProt Q01717); assay: Inhibition of rat TRH receptor at 10 uM relative to control
[21] = molecular target: Mitogen-activated protein kinase kinase kinase kinase 2 (Homo sapiens, UniProt Q12851); assay: Inhibition of recombinant full length human HIs-tagged MAP4K2 expressed in baculovirus expression system using serine/threonine-7 peptide as substrate incubated for 60 mins in presence of ATP by Z'-LYTE assay
[22] = molecular target: Protein-tyrosine kinase 6 (Homo sapiens, UniProt Q13882); assay: Inhibition of recombinant full length human His-tagged BRK expressed in baculovirus expression system using tyr01 peptide as substrate incubated for 60 mins in presence of ATP by Z'-LYTE assay
[23] = molecular target: Calcium/calmodulin-dependent protein kinase type II subunit beta (Homo sapiens, UniProt Q13554); assay: Inhibition of recombinant full length human His-tagged CAMK2beta expressed in baculovirus expression system using serine/threonine-17 peptide as substrate incubated for 60 mins in presence of ATP by Z'-LYTE assay
[24] = molecular target: Vascular endothelial growth factor receptor 1 (Homo sapiens, UniProt P17948); assay: Inhibition of recombinant human GST-tagged FLT1 catalytic domain (781 to 1338 residues) expressed in baculovirus expression system using tyrosine-4 peptide as substrate incubated for 60 mins in presence of ATP by Z'-LYTE assay

DNA-dependent protein kinase catalytic subunit, sequence (P78527 whole entry): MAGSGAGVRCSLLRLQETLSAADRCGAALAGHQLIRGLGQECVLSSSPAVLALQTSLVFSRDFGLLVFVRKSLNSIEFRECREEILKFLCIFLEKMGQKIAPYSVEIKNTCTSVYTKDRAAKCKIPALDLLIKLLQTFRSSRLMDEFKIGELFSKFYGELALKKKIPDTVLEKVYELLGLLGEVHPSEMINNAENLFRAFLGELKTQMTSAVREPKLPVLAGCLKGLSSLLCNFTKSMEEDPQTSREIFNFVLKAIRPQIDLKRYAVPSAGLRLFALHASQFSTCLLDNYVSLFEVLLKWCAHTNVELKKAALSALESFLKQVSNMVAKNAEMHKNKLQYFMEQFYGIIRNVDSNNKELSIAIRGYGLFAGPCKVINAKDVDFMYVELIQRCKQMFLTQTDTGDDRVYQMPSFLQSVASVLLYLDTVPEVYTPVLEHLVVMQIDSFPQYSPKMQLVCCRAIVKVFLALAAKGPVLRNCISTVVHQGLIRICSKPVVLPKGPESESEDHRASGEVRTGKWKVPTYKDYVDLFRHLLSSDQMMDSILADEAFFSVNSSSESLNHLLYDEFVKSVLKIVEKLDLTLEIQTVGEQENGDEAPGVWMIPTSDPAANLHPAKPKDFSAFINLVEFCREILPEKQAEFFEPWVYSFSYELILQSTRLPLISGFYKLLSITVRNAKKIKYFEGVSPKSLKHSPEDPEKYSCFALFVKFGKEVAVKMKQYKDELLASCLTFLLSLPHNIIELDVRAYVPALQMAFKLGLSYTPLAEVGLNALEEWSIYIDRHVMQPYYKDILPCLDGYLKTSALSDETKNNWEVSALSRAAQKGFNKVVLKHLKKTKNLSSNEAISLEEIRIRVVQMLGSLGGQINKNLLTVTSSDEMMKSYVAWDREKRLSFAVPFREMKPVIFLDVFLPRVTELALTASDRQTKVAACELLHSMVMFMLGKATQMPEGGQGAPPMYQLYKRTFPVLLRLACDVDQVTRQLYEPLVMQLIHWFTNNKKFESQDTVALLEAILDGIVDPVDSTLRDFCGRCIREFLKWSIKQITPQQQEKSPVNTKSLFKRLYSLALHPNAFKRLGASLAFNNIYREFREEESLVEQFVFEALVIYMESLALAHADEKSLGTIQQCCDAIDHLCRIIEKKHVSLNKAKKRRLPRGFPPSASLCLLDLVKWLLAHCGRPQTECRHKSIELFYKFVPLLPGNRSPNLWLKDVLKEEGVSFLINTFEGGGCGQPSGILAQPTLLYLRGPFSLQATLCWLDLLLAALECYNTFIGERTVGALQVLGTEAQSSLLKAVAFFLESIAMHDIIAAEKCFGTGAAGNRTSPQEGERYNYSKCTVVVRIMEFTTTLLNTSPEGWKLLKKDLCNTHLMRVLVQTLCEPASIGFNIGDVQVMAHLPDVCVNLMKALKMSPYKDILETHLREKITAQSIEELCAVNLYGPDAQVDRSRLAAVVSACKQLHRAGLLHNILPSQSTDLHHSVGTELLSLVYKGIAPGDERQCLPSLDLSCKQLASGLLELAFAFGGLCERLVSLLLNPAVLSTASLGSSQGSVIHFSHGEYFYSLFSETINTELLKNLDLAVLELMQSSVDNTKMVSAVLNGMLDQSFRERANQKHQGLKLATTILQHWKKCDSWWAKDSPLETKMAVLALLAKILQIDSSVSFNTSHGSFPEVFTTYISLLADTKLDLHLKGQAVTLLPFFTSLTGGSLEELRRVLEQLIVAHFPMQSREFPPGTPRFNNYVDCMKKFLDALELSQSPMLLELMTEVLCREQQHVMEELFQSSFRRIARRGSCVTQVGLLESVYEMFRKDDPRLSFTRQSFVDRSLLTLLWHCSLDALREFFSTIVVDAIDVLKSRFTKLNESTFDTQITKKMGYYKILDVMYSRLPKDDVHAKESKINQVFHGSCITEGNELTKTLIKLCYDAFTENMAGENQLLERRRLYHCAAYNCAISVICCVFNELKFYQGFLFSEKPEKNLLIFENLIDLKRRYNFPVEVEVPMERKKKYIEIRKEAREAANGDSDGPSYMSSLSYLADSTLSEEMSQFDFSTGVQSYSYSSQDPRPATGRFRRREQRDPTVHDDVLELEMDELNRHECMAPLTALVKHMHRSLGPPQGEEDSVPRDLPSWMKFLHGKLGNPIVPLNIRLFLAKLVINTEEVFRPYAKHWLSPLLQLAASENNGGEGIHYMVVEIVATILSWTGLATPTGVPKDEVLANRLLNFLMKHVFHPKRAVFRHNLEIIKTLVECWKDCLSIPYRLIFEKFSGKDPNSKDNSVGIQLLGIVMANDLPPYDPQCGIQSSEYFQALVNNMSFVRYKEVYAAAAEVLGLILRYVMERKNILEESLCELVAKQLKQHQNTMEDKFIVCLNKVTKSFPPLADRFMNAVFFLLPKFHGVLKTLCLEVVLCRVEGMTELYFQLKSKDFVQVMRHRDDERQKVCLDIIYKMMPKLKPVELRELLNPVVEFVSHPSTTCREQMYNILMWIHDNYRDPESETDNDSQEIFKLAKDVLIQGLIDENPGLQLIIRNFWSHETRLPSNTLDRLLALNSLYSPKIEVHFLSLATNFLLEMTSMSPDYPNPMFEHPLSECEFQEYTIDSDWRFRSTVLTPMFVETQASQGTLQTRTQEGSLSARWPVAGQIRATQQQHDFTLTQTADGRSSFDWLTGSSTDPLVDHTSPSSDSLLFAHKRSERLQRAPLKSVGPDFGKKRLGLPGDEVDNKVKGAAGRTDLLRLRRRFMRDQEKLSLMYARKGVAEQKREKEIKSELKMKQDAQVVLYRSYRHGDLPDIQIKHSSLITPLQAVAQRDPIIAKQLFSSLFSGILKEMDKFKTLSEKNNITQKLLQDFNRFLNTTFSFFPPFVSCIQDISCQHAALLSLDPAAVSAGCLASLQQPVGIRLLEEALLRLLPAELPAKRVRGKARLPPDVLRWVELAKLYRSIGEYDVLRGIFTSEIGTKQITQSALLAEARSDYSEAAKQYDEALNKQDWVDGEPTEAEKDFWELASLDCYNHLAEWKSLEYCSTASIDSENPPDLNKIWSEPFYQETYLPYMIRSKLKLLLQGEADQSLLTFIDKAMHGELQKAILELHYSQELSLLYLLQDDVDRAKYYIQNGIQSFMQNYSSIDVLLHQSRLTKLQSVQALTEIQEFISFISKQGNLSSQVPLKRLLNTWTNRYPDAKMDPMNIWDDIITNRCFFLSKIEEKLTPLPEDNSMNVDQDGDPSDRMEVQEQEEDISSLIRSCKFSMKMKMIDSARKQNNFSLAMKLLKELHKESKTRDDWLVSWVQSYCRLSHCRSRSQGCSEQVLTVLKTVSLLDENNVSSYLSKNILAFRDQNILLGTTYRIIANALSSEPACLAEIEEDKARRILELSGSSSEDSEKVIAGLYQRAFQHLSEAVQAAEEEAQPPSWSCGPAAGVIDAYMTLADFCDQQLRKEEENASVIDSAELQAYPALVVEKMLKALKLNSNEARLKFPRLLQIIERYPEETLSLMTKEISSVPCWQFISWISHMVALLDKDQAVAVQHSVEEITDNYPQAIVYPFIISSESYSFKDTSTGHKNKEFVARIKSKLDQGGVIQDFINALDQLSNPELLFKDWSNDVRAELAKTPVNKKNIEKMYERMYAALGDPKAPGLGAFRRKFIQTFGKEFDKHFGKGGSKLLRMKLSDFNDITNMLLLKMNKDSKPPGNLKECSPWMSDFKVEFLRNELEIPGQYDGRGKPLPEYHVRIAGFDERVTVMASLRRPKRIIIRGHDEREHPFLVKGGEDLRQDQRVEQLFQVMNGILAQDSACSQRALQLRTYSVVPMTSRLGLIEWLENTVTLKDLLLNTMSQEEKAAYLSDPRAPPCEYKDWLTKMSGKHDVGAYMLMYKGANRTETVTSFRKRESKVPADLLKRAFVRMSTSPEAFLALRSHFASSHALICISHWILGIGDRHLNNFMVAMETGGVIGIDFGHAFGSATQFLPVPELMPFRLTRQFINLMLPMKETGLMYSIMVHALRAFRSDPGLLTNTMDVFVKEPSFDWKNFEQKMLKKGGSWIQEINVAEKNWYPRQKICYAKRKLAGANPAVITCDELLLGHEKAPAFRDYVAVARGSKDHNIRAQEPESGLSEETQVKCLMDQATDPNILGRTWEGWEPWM
Mitogen-activated protein kinase 11, sequence (Q15759 whole entry): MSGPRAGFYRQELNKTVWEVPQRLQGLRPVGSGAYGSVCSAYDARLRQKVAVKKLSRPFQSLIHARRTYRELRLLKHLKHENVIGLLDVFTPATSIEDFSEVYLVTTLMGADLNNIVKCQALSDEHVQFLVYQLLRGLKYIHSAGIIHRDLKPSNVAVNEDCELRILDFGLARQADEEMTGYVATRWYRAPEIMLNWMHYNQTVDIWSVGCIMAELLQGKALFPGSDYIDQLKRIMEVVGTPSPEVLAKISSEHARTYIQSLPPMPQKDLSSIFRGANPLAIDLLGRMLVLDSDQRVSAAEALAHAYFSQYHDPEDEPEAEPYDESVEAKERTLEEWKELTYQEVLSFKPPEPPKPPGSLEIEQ
Tyrosine-protein kinase Yes, sequence (P07947 whole entry): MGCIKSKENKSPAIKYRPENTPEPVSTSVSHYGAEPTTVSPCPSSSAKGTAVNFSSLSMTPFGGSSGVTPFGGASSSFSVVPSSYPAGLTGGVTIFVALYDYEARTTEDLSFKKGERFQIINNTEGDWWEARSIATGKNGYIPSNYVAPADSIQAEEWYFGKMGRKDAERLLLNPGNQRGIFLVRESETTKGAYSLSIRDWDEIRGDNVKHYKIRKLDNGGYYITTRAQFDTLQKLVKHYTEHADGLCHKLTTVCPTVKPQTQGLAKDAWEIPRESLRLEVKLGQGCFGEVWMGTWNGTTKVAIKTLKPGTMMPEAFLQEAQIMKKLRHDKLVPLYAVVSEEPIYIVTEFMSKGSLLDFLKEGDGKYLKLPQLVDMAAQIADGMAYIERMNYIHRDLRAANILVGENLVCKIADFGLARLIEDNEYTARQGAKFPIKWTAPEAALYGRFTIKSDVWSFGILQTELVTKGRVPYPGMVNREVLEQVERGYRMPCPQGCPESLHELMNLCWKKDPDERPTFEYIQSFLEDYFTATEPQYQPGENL

C[C@@H]1C[C@H]1C(=O)N1CCN(c2cnc(C#N)c(-c3cnn(C)c3)n2)C[C@H]1C
IC50 [1]: 23 µM
IC50 [2]: > 100 µM
IC50 [3]: > 100 µM
IC50 [4]: > 100 µM
inhibition [5]: 7%
IC50 [6]: > 100 µM
inhibition [7]: 1%
IC50 [8]: > 100 µM
IC50 [9]: > 100 µM
IC50 [10]: 37 µM
inhibition (Caspase-8 (Homo sapiens)): 2%
CLint scaled [11]: 47 mL/min/kg
inhibition [12]: 7%
IC50 [13]: > 100 µM
IC50 [14]: > 100 µM
IC50 [15]: > 100 µM
IC50 [16]: > 100 µM
IC50 [17]: > 100 µM
inhibition [18]: -5%
IC50 (CDK7/Cyclin H/MNAT1): > 100 µM
IC50 [19]: > 100 µM
inhibition [20]: 0%
IC50 [21]: > 100 µM
IC50 [22]: > 100 µM
IC50 [23]: > 100 µM
IC50 [24]: > 100 µM
